Here are results for 2 compounds from publication PMC8931498 (Frontiers in Pharmacology, 2022).

Data set [1] can be described thus: Plasma pharmacokinetics over 2 h after oral ibogaine in wild-type, Abcg2-/- and Abcb1a/1b;Abcg2-/- mice. It is filed as in vivo. The conditions noted are these: for Fold increase AUC0-2h: oral 10 mg/kg ibogaine; for Tmax / Cmax / AUC(0-t): mouse, plasma, po, 10 mg/kg; for AUC(0-t): read-out: AUC0-2h. The method, then:
(§1) In each experiment, six to seven mice were used per strain. […] To reduce variation in absorption upon oral administration, mice were fasted for 2–3 h before dosing. […] At either 2 or 8 h after dosing, mice were deeply anesthetized with isoflurane (3%), followed by cardiac puncture to collect blood (at least 600 μL) in Eppendorf tubes using heparin as an anticoagulant. The mice were then sacrificed by cervical dislocation, and tissues including the brain, liver (without gallbladder), kidneys, spleen, small intestine together with the fecal content (SIWC), heart, and subcutaneous inguinal white adipose tissue were collected and weighed. For the 2 h experiment, the gallbladder with content was also (separately) collected in an Eppendorf tube and weighed. Plasma was obtained from blood samples by centrifugation at 9,000 g for 6 min at 4 °C. Tissue homogenates (except gallbladder) were obtained using the Fast Prep-24 5G homogenizer (MP Biomedicals Inc., Santa Ana, CA, United States). Before homogenization, Bovine Serum Albumin (BSA, Fraction V) was dissolved at a concentration of 2% (w/v) in distilled water. Three mL of ice-cold 2% BSA were added to liver and SIWC; 2 ml to kidneys; 1 ml to brain, spleen, and heart; and 2–3 ml to the white adipose tissue (depending on the tissue weight). For the gallbladder, 150 μL of 2% BSA was added; then, the samples were centrifuged (9,000 x g, 4°C, 6 min), and only the supernatant was collected for analysis. Both plasma and tissue samples were kept at −70°C in amber-colored Eppendorf tubes until analysis.
(§2) A volume of 50 µL human plasma sample, a 5-fold diluted mouse plasma sample (10 uL + 40 uL control human plasma), or 100 µL homogenized tissue sample were processed. […] To the 50 uL plasma samples, 20 uL of a working solution containing both internal standards at a concentration of 10 ng/ml in methanol (WIS10) was added. Sample pre-treatment involved protein precipitation with 150 uL of acetonitrile-methanol (1:1, v/v). For the tissue homogenates (100 uL sample aliquots), 40 uL of WIS10 was added, and 300 uL precipitation reagent as sample cleanup. After centrifuging the samples (10 min, 4°C, 15,000 x g), 100 µL of the supernatant was transferred to an amber-colored autosampler vial with insert. Then 100 µL of 4 mM ammonium formate pH 3.5 in water was added, and after vortex mixing, the extracts were injected (5 uL) onto a UPLC system (Acquity UPLC I-Class IVD system, Waters, Milford, MA, United States) equipped with an Acquity UPLC HSS T3 Column (150 × 2.1 mm ID, 1.8 µm). The tray temperature was set to 5 ± 3°C, and the analytical column was kept at 50°C. Gradient elution was applied using 4 mM ammonium formate pH 3.5 in water as eluent A and acetonitrile as eluent B. The flow rate was 500 μL/min, and the total runtime was 6 min. Detection was performed in the positive ion mode on a Quadrupole MS/MS detector with a Turbo Ion Spray Interface (QTRAP5500, Sciex, Framingham, MA, United States). The ionspray voltage was 2250 V, and the spray temperature was 700 °C. Gas settings, potentials, and collision energies were optimized by infusion of the analytes and by flow injection analysis.
(§3) Pharmacokinetic parameters were calculated by non-compartmental methods using the Microsoft Excel menu-driven add-in program PKsolver ([Zhang et al., 2010]). The area under the plasma concentration-time curve (AUC) was calculated with the trapezoidal rule without extrapolating to infinity. The peak plasma concentration (Cmax) and the time to reach Cmax (Tmax) were estimated from the original data. […] GraphPad Prism 9 (GraphPad Software Inc., San Diego, CA, United States) was used to plot the data and to perform statistical analysis. To determine whether the most extreme value in a data set was a significant outlier from the rest, the Grubbs’s (or extreme studentized variate) test was applied (α = 0.05). All data were log-transformed before statistical analysis. […]

Data set [2] is described as follows: Plasma pharmacokinetics over 2 h after oral ibogaine in wild-type, Oatp1a/1b-/-, Oatp1a/1b-/-;1B1tg and Oatp1a/1b-/-;1B3tg mice. It is filed as in vivo. The conditions noted are these: for Fold increase AUC0-2h: oral 10 mg/kg ibogaine; for Cmax / Tmax / AUC(0-t): female, mouse, plasma, po, 10 mg/kg; for AUC(0-t): read-out: AUC0-2h. The procedure: as §1, §2, §3

The nature of data set [3]: Plasma pharmacokinetics over 8 h after oral ibogaine in wild-type, Cyp3a-/- and Cyp3aXAV mice. The note with it: female, mouse, 10 mg/kg; for AUC(0-t): read-out: AUC0-8h. Type of data set: in vivo. The method, then:
as §1, §2, §3

The nature of data set [4]: Tissue distribution 2 h after oral ibogaine in wild-type, Abcg2-/- and Abcb1a/1b;Abcg2-/- mice. It is filed as in vivo. The conditions noted are these: for fold decrease in total amount (% of dose) in SIWC corrected for plasma AUC over 2 h: small intestine with fecal content, oral 10 mg/kg ibogaine. The method, then: as §1, §2, §3
Data set [5] is described as follows: Tissue accumulation 2 h after oral ibogaine in wild-type and Oatp1a/1b-deficient mouse strains. The note with it: WT mice; 2 h after oral 10 mg/kg ibogaine. Type of data set: in vivo, mice. The method, then: as §1
A volume of 50 µL human plasma sample, a 5-fold diluted mouse plasma sample (10 uL + 40 uL control human plasma), or 100 µL homogenized tissue sample were processed. […] To the 50 uL plasma samples, 20 uL of a working solution containing both internal standards at a concentration of 10 ng/ml in methanol (WIS10) was added. Sample pre-treatment involved protein precipitation with 150 uL of acetonitrile-methanol (1:1, v/v). For the tissue homogenates (100 uL sample aliquots), 40 uL of WIS10 was added, and 300 uL precipitation reagent as sample cleanup. After centrifuging the samples (10 min, 4°C, 15,000 x g), 100 µL of the supernatant was transferred to an amber-colored autosampler vial with insert. […]
Pharmacokinetic parameters were calculated by non-compartmental methods using the Microsoft Excel menu-driven add-in program PKsolver ([Zhang et al., 2010]). The area under the plasma concentration-time curve (AUC) was calculated with the trapezoidal rule without extrapolating to infinity. […]

A further data set concerns human ABCB1. Details: method as in Tournier et al. (2010). The conditions noted are these: hABCB1-transfected HEK293 cells, flow cytometric assay; ref Tournier et al. (2010); cited from earlier work.
In the next data set the test system is human ABCG2. Details: method as in Tournier et al. (2010). The conditions noted are these: hABCG2-transfected HEK293 cells, flow cytometric assay; ref Tournier et al. (2010); cited from earlier work.

As to `CCC1CC2CC3c4[nH]c5ccc(OC6OC(C(=O)O)C(O)C(O)C6O)cc5c4CCN(C2)C13` (stereo not drawn) [Noribogaine glucuronide, noribogaine glucuronide], the “Fold increase AUC0-2h” value was found to be 1.5 in data set [1] (Abcb1a/1b;Abcg2-/- mice vs wild-type); 1.1 in data set [1] (Abcg2-/- mice vs wild-type); 1.0 in data set [1] (wild-type mice (reference)); 1.5 in data set [2] (Oatp1a/1b-/- mice vs wild-type); 1.8 in data set [2] (Oatp1a/1b-/-;1B1tg mice vs wild-type); 1.4 in data set [2] (Oatp1a/1b-/-;1B3tg mice vs wild-type). Further, the “Fold increase AUC0-2h” value in data set [2] (wild-type mice (reference)) came to 1.0. Also, the Tmax turned out to be 2 h in data set [1] (Abcb1a/1b;Abcg2-/-); 2 h in data set [1] (Abcg2-/-); 2 h in data set [1] (female, wild-type); 2 h in data set [2] (Oatp1a/1b-/-); 1 h in data set [2] (Oatp1a/1b-/-;1B1tg); 1 h in data set [2] (Oatp1a/1b-/-;1B3tg). Moreover, the time of peak concentration (Tmax) was 2 h in data set [2] (wild-type), 1 h in data set [3] (Cyp3a-/-), 1 h in data set [3] (Cyp3aXAV) and 1 h in data set [3] (wild-type). In addition, the Cmax in data set [1] (female, Abcb1a/1b;Abcg2-/-) was determined as 156 ± 31 ng/mL; in data set [1] (female, Abcg2-/-), 122 ± 27 ng/mL; in data set [1] (female, wild-type), 125 ± 30 ng/mL; in data set [2] (Oatp1a/1b-/-), 155 ± 20 ng/mL; in data set [2] (Oatp1a/1b-/-;1B1tg) it was 199 ± 59 ng/mL; in data set [2] (Oatp1a/1b-/-;1B3tg), 162 ± 25 ng/mL. For the same compound, the maximum concentration (Cmax) was found to be 125 ± 30 ng/mL in data set [2] (wild-type), 114 ± 24 ng/mL in data set [3] (Cyp3a-/-), 123 ± 28 ng/mL in data set [3] (Cyp3aXAV) and 70 ± 13.6 ng/mL in data set [3] (wild-type). Further, the AUC(0-t) is 240 ± 46 ng·h/mL in data set [1] (female, Abcb1a/1b;Abcg2-/-); 184 ± 32 ng·h/mL in data set [1] (female, Abcg2-/-); 164 ± 12 ng·h/mL in data set [1] (female, wild-type); 244 ± 30 ng·h/mL in data set [2] (Oatp1a/1b-/-); 294 ± 65 ng·h/mL in data set [2] (Oatp1a/1b-/-;1B1tg); 236 ± 24 ng·h/mL in data set [2] (Oatp1a/1b-/-;1B3tg). In addition, the AUC(0-t) in data set [2] (wild-type) came out at 164 ± 12 ng·h/mL; in data set [3] (Cyp3a-/-), 422 ± 110 ng·h/mL; in data set [3] (Cyp3aXAV), 536 ± 117 ng·h/mL; in data set [3] (wild-type), 219 ± 50 ng·h/mL. Further, in data set [4] (Abcb1a/1b;Abcg2-/- mice compared to WT, 2 h after oral 10 mg/kg ibogaine), the “fold decrease in liver-to-plasma ratio” value is reported as 1.7 fold. The “fold decrease in total amount (% of dose) in SIWC corrected for plasma AUC over 2 h” value in data set [4] (Abcb1a/1b;Abcg2-/- mice compared to WT) is reported as 2.1 fold; in data set [4] (Abcg2-/- mice compared to WT) it was 1.5 fold. Further, the “gallbladder-to-plasma ratio, fold lower than in WT” value in data set [4] (Abcb1a/1b;Abcg2-/- vs WT mice, not statistically significant, 2 h after oral 10 mg/kg ibogaine) was “more than 2 fold”. Also, the Kp at 2 h in data set [4] (wild-type, mouse, inguinal white adipose tissue, po, 10 mg/kg, read-out: adipose tissue-to-plasma distribution ratio) is 0.058. In addition, in data set [5], the “gallbladder-to-plasma ratio, fold higher than liver-to-plasma ratio” value is listed as “about 10 fold”.

For ibogaine, the “inhibition of human ABCB1” value in the data set on human ABCB1 was “significantly inhibited in a concentration-dependent manner”. In addition, the “inhibition of human ABCG2” value in the data set with human ABCG2 is “significantly inhibited in a concentration-dependent manner”.
